Laboratory results published in US5593982A, “Cyclopentanperhydrophenanthren-17β-(3-furyl)-3-derivatives and pharmaceutical compositions comprising same for the treatment of cardiovascular disorders” (Sigma-Tau Industrie Farmaceutiche Riunite S.p.A., priority 1992, dated 1997).
Counter-ions that a name gives are not always drawn. Like-named read-outs stand apart in the source and are kept apart here.

What was measured:
[1] = molecular target: T1, Na^+,K^+ -ATPase receptor (Canis lupus familiaris, UniProt P50997); experiment: displacement of the specific 3H-ouabain binding from the purified Na+,K+-ATPase receptor
T1 construct: from tissue; mammalian kidney outer medulla by the cited Jorgensen 1974 method (own knowledge)
Text: (§1) To test the affinity for the receptor site of the Na^+,K^+ -ATPase and the agonist or antagonist activity on the enzyme, the following tests were used: a) displacement of the specific ^3 H-ouabain binding from the Na^+,K^+ -ATPase receptor purified according to Jorghensen (Jorghensen P., BBA, 1974, 356, 36) and Erdmann (Erdmann E. et al., Arzneim. Forsh., 1984, 34, 1314); b) inhibition of the activity of the purified Na^+,K^+ -ATPase measured as % of hydrolysis of ^32 P-ATP in presence and in absence of the tested compound (Mall F. et al., Biochem. Pharmacol., 1984, 33, 47).

[2] = molecular target: T2, purified Na^+,K^+ -ATPase (Canis lupus familiaris, UniProt P50997); experiment: inhibition of the activity of the purified Na+,K+-ATPase measured as % of hydrolysis of 32P-ATP; assay type: biochemical
T2 construct: from tissue; mammalian kidney outer medulla by the cited Jorgensen 1974 method (own knowledge)
Text: as §1

[3] = hydrolysis of 32P-ATP, purified Na+,K+-ATPase, read-out: Inhibitory Activity log IC50 (converted)
[4] = displacement of specific 3H-ouabain binding, purified Na+,K+-ATPase, read-out: Binding 3H-Ouab. Displacement log IC50 (converted)

| Structure (SMILES) | IC50 [1] | IC50 [2] | IC50 [2, 3] | IC50 [1, 4] |
| --- | --- | --- | --- | --- |
| C[C@]12CC[C@H](OCCN)C[C@H]1CC[C@@H]1[C@@H]2CC[C@]2(C)[C@@H](c3ccoc3)CC[C@]12O [Comp. I-aa, 3β-(2-Aminoethoxy)-17β-(3-furyl)-5β-androstan-14β-ol] | 0.158 µM | 0.501 µM | – | – |
| C[C@]12CC[C@H](OCCCCN)C[C@H]1CC[C@@H]1[C@@H]2CC[C@]2(C)[C@@H](c3ccoc3)CC[C@]12O [Comp. I-ac, 3β-(4-Aminobutoxy)-17β-(3-furyl)-5β-androstan-14β-ol] | 0.398 µM | 2 µM | – | – |
| C[C@]12CC[C@H](OCCN3CCCC3)C[C@H]1CC[C@@H]1[C@@H]2CC[C@]2(C)[C@@H](c3ccoc3)CC[C@]12O [Comp. I-ad, 3β-(2-(1-Pyrrolydinyl)ethoxy)-17β-(3-furyl)-5β-androstan-14β-ol] | 0.158 µM | 1 µM | – | – |
| C[C@]12CC[C@H](OCCCN3CCNCC3)C[C@H]1CC[C@@H]1[C@@H]2CC[C@]2(C)[C@@H](c3ccoc3)CC[C@]12O [Comp. I-af, 3β-(3-(1-Piperazinyl)propoxy)-17β-(3-furyl)-5.β-androstan-14β-ol] | 0.1 µM | – | 1.26 µM | – |
| C[C@]12CC[C@H](OCCOCCN3CCCC3)C[C@H]1CC[C@@H]1[C@@H]2CC[C@]2(C)[C@@H](c3ccoc3)CC[C@]12O [Comp. I-ah, 3β-(2-(2-(1-Pyrrolidinyl)ethoxy)ethoxy)-17β-(3-furyl)-5β-androstan-14β-ol] | 0.158 µM | 0.794 µM | – | – |
| CN(C)CCCOCCO[C@H]1CC[C@@]2(C)[C@H](CC[C@@H]3[C@@H]2CC[C@]2(C)[C@@H](c4ccoc4)CC[C@]32O)C1 [Comp. I-aj, 3β-(2-(3-Dimethylaminopropoxy)-ethoxy)-17β-(3-furyl)-5β-androstan-14β-ol] | 0.158 µM | – | 1.26 µM | – |
| C[C@]12CC[C@H](OCC[N+]3(C)CCCC3)C[C@H]1CC[C@@H]1[C@@H]2CC[C@]2(C)[C@@H](c3ccoc3)CC[C@]12O [Comp. I-ak, 3β-(2-(N-methyl-1-pyrrolydinium)ethoxy)-17β-(3-furyl)-5β-androstan-14β-ol iodide] | 0.158 µM | – | 1.26 µM | – |
| C[C@]12CC[C@H](OCCCNC(=N)N)C[C@H]1CC[C@@H]1[C@@H]2CC[C@]2(C)[C@@H](c3ccoc3)CC[C@]12O [Comp. I-am, 3β-(3-Guanidinopropxy)-17β-(3-furyl)-5β-androstan-14β-ol nitrate] | 0.2 µM | 3.16 µM | – | – |
| CNCCO[C@H]1CC[C@@]2(C)[C@H](CC[C@@H]3[C@@H]2CC[C@]2(C)[C@@H](c4ccoc4)CC[C@]32O)C1 [Comp. I-an, 3β-(2-Methylaminoethoxy)-17β-(3-furyl)-5β-androstan-14β-ol] | 0.2 µM | 1.58 µM | – | – |
| C[C@]12CC[C@H](OCC(N)CN)C[C@H]1CC[C@@H]1[C@@H]2CC[C@]2(C)[C@@H](c3ccoc3)CC[C@]12O (stereo partly drawn) [Comp. I-ao, 3β-(2,3-Diaminopropoxy)-17β-(3-furyl)-5β-androstan-14β-ol] | 0.316 µM | 1.58 µM | – | – |
| C[C@]12CC[C@H](OCC(CN3CCCC3)N3CCCC3)C[C@H]1CC[C@@H]1[C@@H]2CC[C@]2(C)[C@@H](c3ccoc3)CC[C@]12O (stereo partly drawn) [Comp. I-ap, 3β-(2,3-Bis(1-pyrrolidinyl)propoxy)-17β-(3-furyl)-5β-androstan-14β-ol] | 0.398 µM | 1.58 µM | – | – |
| CO[C@]12CC[C@H](c3ccoc3)[C@@]1(C)CC[C@H]1[C@H]2CC[C@@H]2C[C@@H](OCCCN)CC[C@@]21C [Comp. I-ar] | – | – | 25.1 µM | 3.16 µM |
| CO[C@]12CC[C@H](c3ccoc3)[C@@]1(C)CC[C@H]1[C@H]2CC[C@@H]2C[C@@H](OCCN3CCCC3)CC[C@@]21C [Comp. I-as, 3β-(2-(1-Pyrrolydinyl)ethoxy)-14β-methoxy-17β-(3-furyl)-5β-androstane oxalate] | – | – | 25.1 µM | 5.01 µM |
| C[C@]12CC[C@H](OCCCN)C=C1CC[C@@H]1[C@@H]2CC[C@]2(C)[C@@H](c3ccoc3)CC[C@]12O [Comp. I-at, 3β-(3-Aminopropoxy)-17β-(3-furyl)-androst-4-en-14β-ol] | – | 2.51 µM | – | 0.631 µM |
| C[C@]12CC[C@H](OCCN3CCCC3)C=C1CC[C@@H]1[C@@H]2CC[C@]2(C)[C@@H](c3ccoc3)CC[C@]12O [Comp. I-au, 3β-(2-(1-Pyrrolidinyl)ethoxy)-17β-(3-furyl)-androst-4-en-14β-ol oxalate] | 0.316 µM | 1.58 µM | – | – |
| C[C@]12CC[C@H](OCCCN)CC1=CC[C@@H]1[C@@H]2CC[C@]2(C)[C@@H](c3ccoc3)CC[C@]12O [Comp. I-av, 3β-(3-Aminopropoxy)-17β-(3-furyl)-androst-5-en-14β-ol] | – | 2.51 µM | – | 0.631 µM |
| C[C@]12CC[C@H](OCCN3CCCC3)CC1=CC[C@@H]1[C@@H]2CC[C@]2(C)[C@@H](c3ccoc3)CC[C@]12O [Comp. I-aw, 3β-(2-(1-Pyrrolidinyl)ethoxy)-17β-(3-furyl)-androst-5-en--14β-ol] | 1.58 µM | – | 6.31 µM | – |
| C[C@]12CC[C@H](OCCN3CCCC3)C[C@@H]1CC[C@@H]1[C@@H]2CC[C@]2(C)[C@@H](c3ccoc3)CC[C@]12O [Comp. I-ay, 3β-(2-(1-Pyrrolidinyl)ethoxy)-17β-(3-furyl)-5α-androstan-14β-ol] | 0.398 µM | 3.16 µM | – | – |
| C[C@]12CC[C@H](OCCN3CCCC3)C[C@H]1CC[C@@H]1[C@@H]2CC[C@]2(C)[C@@H](c3ccoc3)C[C@H]3O[C@]132 [Comp. I-ba, 3β-(2-(1-Pyrrolidinyl)ethoxy)-14β,15β-epoxy-17β-(3-furyl)-5β-androstane oxalate] | 0.631 µM | 1.58 µM | – | – |
| C[C@]12CC[C@H](OCCN3CCCC3)C=C1CC[C@@H]1[C@@H]2CC[C@]2(C)[C@@H](c3ccoc3)C[C@H]3O[C@]132 [Comp. I-bc, 3β-(2-(1-Pyrrolidinyl)ethoxy)-14β,15β-epoxy-17β-(3-furyl)-androst-4-ene] | 0.316 µM | 2 µM | – | – |
| C[C@]12CC[C@H](SCCN3CCOCC3)C[C@H]1CC[C@@H]1[C@@H]2CC[C@]2(C)[C@@H](c3ccoc3)CC[C@]12O [Comp. I-bu, 3β-(2-(4-Morpholinoethylthio)-17β-(3-furyl)-5β-androstan-14β-ol oxalate] | 0.316 µM | 0.631 µM | – | – |
| C[C@]12CC[C@H](SCCCN3CCNCC3)C[C@H]1CC[C@@H]1[C@@H]2CC[C@]2(C)[C@@H](c3ccoc3)CC[C@]12O [Comp. I-bx, 3β-(3-(1-Piperazinyl)propylthio)-17β-(3-furyl)-5β-androstan-14β-ol dioxalate] | 0.501 µM | 1 µM | – | – |
| C[C@]12CC[C@H](SCCN3CCCC3)C=C1CC[C@@H]1[C@@H]2CC[C@]2(C)[C@@H](c3ccoc3)CC[C@]12O [Comp. I-ce, 3β-(2-(1-Pyrrolidinyl)ethylthio)-17β-(3-furyl)-androst-4-en-14β-ol oxalate] | 1 µM | 3.16 µM | – | – |
| C[C@]12CC[C@H](SCCCN)C[C@H]1CC[C@@H]1[C@@H]2CC[C@]2(C)[C@@H](c3ccoc3)C[C@H]3O[C@]132 [Comp. I-cj, 3β-(3-Aminopropylthio)-14β,15β-epoxy-17β-(3-furyl)-5β-androstane oxalate] | 2 µM | 6.31 µM | – | – |
| C[C@]12CC[C@H](OCCOCCCN)C[C@H]1CC[C@@H]1[C@@H]2CC[C@]2(C)[C@@H](c3ccoc3)CC[C@]12O [Comp. I-cx, 3β-(2-(3-Aminopropoxy)ethoxy)-17β-(3-furyl)-5β-androstan, 14β-ol] | 0.2 µM | 1.58 µM | – | – |
| C[C@]12CC[C@H](OCCOCC(O)CN)C[C@H]1CC[C@@H]1[C@@H]2CC[C@]2(C)[C@@H](c3ccoc3)CC[C@]12O (stereo partly drawn) [Comp. I-cy, 3β-(2-(3-Amino-2-hydroxypropoxy)ethoxy)-17β-(3-furyl)-5β-androstan-14β-ol] | 0.398 µM | 1.58 µM | – | – |
| C[C@]12CC[C@H](OCCOCC(N)CN)C[C@H]1CC[C@@H]1[C@@H]2CC[C@]2(C)[C@@H](c3ccoc3)CC[C@]12O (stereo partly drawn) [Comp. I-cz, 3β-(2-(2,3-Diaminopropoxy)ethoxy)-17β-(3-furyl)-5β-androstan-14β-ol] | 0.398 µM | 2 µM | – | – |
| C[C@]12CC[C@H](OCCOCCCN3CCCC3)C[C@H]1CC[C@@H]1[C@@H]2CC[C@]2(C)[C@@H](c3ccoc3)CC[C@]12O [Comp. I-da, 3β-(2-(3-(1-Pyrrolidinyl)propoxy)ethoxy)-17β-(3-furyl)-5β-androstan-14β-ol] | 0.316 µM | 1.58 µM | – | – |
| C[C@]12CC[C@H](OCCNCCCN3CCCC3)C[C@H]1CC[C@@H]1[C@@H]2CC[C@]2(C)[C@@H](c3ccoc3)CC[C@]12O [Comp. I-db, 3β-(2-(3-(1-Pyrrolidinyl)propylamino)ethoxy)-17β-(3-furyl)-5β-androstan-14β-ol] | 0.2 µM | 1.58 µM | – | – |
